Data taken from patent US20250034139A1, “AMINE COMPOUNDS HAVING ANTI-INFLAMMATORY, ANTIFUNGAL, ANTIPARASITIC, AND ANTICANCER ACTIVITY” (PHARMA CINQ, LLC, priority 2013, published 2025).

Key:
[1] = test system: 4T1 murine breast cancer cells; assay: Example S: in vitro anticancer screen, 4T1 cells, Wst1; assay type: cell-based, mouse; details: Mus musculus, 4T1, 18 h, 18 hr, Wst1; for viability at 1 µM: read-out: 4T1 1 μM, percent of cancer cell survival relative to vehicle treated cells; for viability at 5 µM: read-out: 4T1 5 μM, percent of cancer cell survival relative to vehicle treated cells
Method: Anticancer activity against 4T1 murine breast cancer cells cancer cells was assessed in vitro by seeding 1×10^4 cells/well in flat bottom culture plates, then treating with selected 1 μM or 5 μM concentrations of compounds for 18 hr after plating. Then 10 μL of Wst1 dye reagent, a tetrazolium dye indicator for […], was added/well and incubated approximately 2 hr before being assayed on the Biotek EL800 Universal microplate reader (450 nm, reference 630 nm).
Numerical values in the Table 37 represent percent of cancer cell survival relative to vehicle treated cells at the indicated concentrations, with values under 100 indicating anticancer cytotoxic activity at the drugs concentrations tested.

THP-1 cells = assay: Example D: LPS-triggered THP-1 cell death assay, acute/5-hour and chronic/48-hour; assay type: cell-based, Human; details: 10 ng/ml LPS, 0.1 μM test compound, 48 hours
Method: Compounds of the invention were tested at 0.1 μM versus AC in the LPS-triggered THP-1 cell death assay. Both acute/5-hour and chronic/48-hour phases of cell death were assessed. Compounds were screened in batches with DMSO as the negative control and AC as the high activity control.

[2] = test system: PC-3 prostate cancer cells; assay: Example T: sensitisation of PC-3 cells to doxorubicin, oxaliplatin, paclitaxel or vincristine, Wst1; assay type: cell-based, human; details: PC-3 cells, 72 hours

Row | Structure (SMILES) | viability at 1 µM [1] [%] | viability at 5 µM [1] [%] | Viable cell percent change, Chronic/48-hour, Mean (THP-1 cells) [%] | further results
1 | COCCNc1ccnc2ccccc12 [BR, N-(2-Methoxyethyl)quinolin-4-amine] | 106 | 122 |  | 
2 | c1ccc2c(NCCN3CCOCC3)ccnc2c1 [BS, N-[2-(Morpholin-4-yl)ethyl]quinolin-4-amine] | 105 | 117 |  | 
3 | O=C(NCCCNc1ccnc2ccccc12)c1ccccc1 [BT, N-[3-(Quinolin-4-ylamino)propyl]benzamide] | 119 | 121 | 66.98 | 
4 | CCN(CC)CCNC(=O)c1ccc(Nc2ccnc3ccccc23)cc1 [BW, N-(2-Diethylaminoethyl)-4-(quinolin-4-ylamino)benzamide] | 123 | 236 | 36.08 | 
5 | CN(C)c1ccc(CNc2ccnc3ccccc23)cc1 [BX, N-(4-Dimethylaminobenzyl)quinolin-4-amine] | 116 | 116 | 25.10 | 
6 | c1ccc2c(NCc3ccncc3)ccnc2c1 [BZ, N-(Pyridin-4-ylmethyl)quinolin-4-amine] | 122 | 260 | 30.72 | 
7 | CCCCCCOCCCCCCCC(=O)NCc1ccncc1 [CA, N-(Pyridin-4-ylmethyl)-8-(hexyloxy)octanamide] | 108 | 109 |  | 
8 | CCCCCCOCCCCCCCC(=O)Nc1ccc2ncccc2c1 [CB, N-(Quinolin-6-yl)-8-(hexyloxy)octanamide] | 105 | 102 | 10.62 | 
9 | CCCCCCOCCCCCCCCn1cnc2ccccc21 [CC, 1-[8-(Hexyloxy)octyl]-1H-benzimidazole] | 110 | 99.5 |  | 
10 | CCCCCCCCCCOc1cccc(CNc2ncnc3ccccc23)c1 [CG, N-[3-(Decyloxy)benzyl]quinazolin-4-amine] |  |  | 54.66 | 
11 | CCCCCCOCCCCCCCCNc1ccnc2c(C(F)(F)F)cccc12 [CN, N-[8-(Hexyloxy)octyl]-8-(trifluoromethyl)quinolin-4-amine] | 32.5 | 18.8 | 3.70 | 
12 | c1ccc(-c2ccc(Nc3ccnc4ccccc34)cc2)cc1 [DC, N-(Biphenyl-4-yl)quinolin-4-amine] | 110 | 96.7 | 87.66 | 
13 | CCCCCC(=O)Nc1ccc(Nc2ccnc3ccccc23)cc1 [DG, N-[4-(Quinolin-4-ylamino)phenyl]hexanamide] | 105 | 94.7 | 37.90 | 
14 | CCCCCC(=O)Nc1cccc(Nc2ccnc3ccccc23)c1 [DH, N-[3-(Quinolin-4-ylamino)phenyl]hexanamide] | 96.6 | 112 | 50.89 | 
15 | COc1ccc(Nc2ccnc3ccccc23)cc1 [DI, N-(4-Methoxyphenyl)quinolin-4-amine] | 108 | 126 | 82.24 | 
16 | CCCCOc1ccc(Nc2ccnc3ccccc23)cc1 [DK, N-(4-Butoxyphenyl)quinolin-4-amine] | 102 | 87.6 | 73.60 | 
17 | c1ccc(CNc2ccnc3ccccc23)cc1 [DQ, N-Benzylquinolin-4-amine] | 99.5 | 122 | 32.31 | 
18 | CCCCCCCCCCOc1ccc(CNc2ccnc3ccccc23)cc1 [DT, N-[4-(Decyloxy)benzyl]quinolin-4-amine] |  |  | 16.12 | 

Row | Structure (SMILES) | viability at 1 µM [1] [%] | viability at 5 µM [1] [%] | Viable cell percent change, Chronic/48-hour, Mean (THP-1 cells) [%] | further results
19 | c1ccc(CCOc2cccc(CNc3ccnc4ccccc34)c2)cc1 [DV, N-(3-Phenethoxybenzyl)quinolin-4-amine] |  |  | 24.69 | viability at 0.4 µM ([2]; Homo sapiens, compound 0.4 μM alone, Wst1, vehicle = 100, read-out: No Chemo: percent cell survival): 31.6%; Doxorubicin 3.5 μM: percent cell survival ([2]; compound 0.4 μM + doxorubicin 3.5 μM, chemotherapy agent alone normalized to 100%): 76.7%; Oxaliplatin 100 μM: percent cell survival ([2]; compound 0.4 μM + oxaliplatin 100 μM, chemotherapy agent alone normalized to 100%): 61.9%; Paclitaxel 50 μM: percent cell survival ([2]; compound 0.4 μM + paclitaxel 50 μM, chemotherapy agent alone normalized to 100%): 23.3%; Vincristine 100 nM: percent cell survival ([2]; compound 0.4 μM + vincristine 100 nM, chemotherapy agent alone normalized to 100%): 32.2%
20 | O=C(NCCCCNc1ccnc2ccccc12)c1ccccc1 [DW, N-[4-(Quinolin-4-ylamino)butyl]benzamide] | 102 | 194 | 73.97 | 
21 | O=C(NCCCCCCNc1ccnc2ccccc12)c1ccccc1 [DX, N-[6-(Quinolin-4-ylamino)hexyl]benzamide] | 112 | 105 | 59.95 | 
22 | CCCCCCOc1ccccc1C(=O)NCCCCNc1ccnc2ccccc12 [ED, 2-(Hexyloxy)-N-[4-(quinolin-4-ylamino)butyl]benzamide] |  |  | 81.40 | 
23 | c1ccc(CNc2ccnc3ccccc23)nc1 [EH, N-(Pyridin-2-ylmethyl)quinolin-4-amine] | 116 | 128 | 32.85 | 
24 | CCCCCCOCCCCCCCCNc1ccc2ncccc2c1 [EK, N-[8-(Hexyloxy)octyl]quinolin-6-amine] | 116 | 114 | 15.50 | 
25 | CCCCCCOCCCCCCCCNc1cccc2cccnc12 [EM, N-[8-(Hexyloxy)octyl]quinolin-8-amine] | 106 | 93 |  | 
26 | CCCCCCOCCCCCCCCNc1cc(C(F)(F)F)nc2ccccc12 [EN, N-[8-(Hexyloxy)octyl]-2-(trifluoromethyl)quinolin-4-amine] | 93.3 | 89.8 | 6.64 | 
27 | CCCCC(OC(C)=O)c1nc2c(N)nc3ccccc3c2n1CC(C)C (stereo not shown) [FC, 1-(4-Amino-1-isobutyl-1H-imidazo[4,5-c]quinolin-2-yl)pentyl acetate] | 115 | 123 |  | 
28 | CCCCCCCCCCCCCCCCn1cnc2cnccc21 [FM, 1-Hexadecyl-1H-imidazo[4,5-c]pyridine] |  |  | 9.74 | 
29 | COCCCCCCCCNc1ccncc1 [FN, N-(8-Methoxyoctyl)pyridin-4-amine] | 92.9 | 79.4 | 3.54 | 
30 | CCCCCCOCCCCCCCCNc1cccnc1 [FO, N-[8-(Hexyloxy)octyl]pyridin-3-amine] | 106 | 146 | 20.18 | 
31 | CCCCCCOCCCCCCCCNc1ccccn1 [FP, N-[8-(Hexyloxy)octyl]pyridin-2-amine] | 116 | 116 | 30.44 | 
32 | CCCCCCOCCCCCCCCNc1ncccn1 [FQ] | 110 | 98 | 25.62 | 
33 | CCCCCCOCCCCCCCCNc1nccc2ccccc12 [FS, N-[8-(Hexyloxy)octyl]isoquinolin-1-amine] | 122 | 107 |  | 
34 | CCCCCCOCCCCCCCCNc1cnc2ccccc2n1 [FU, N-[8-(Hexyloxy)octyl]quinoxalin-2-amine] | 118 | 106 |  | 
35 | CCCCCCOCCCCCCCCNc1cnccn1 [FV, N-[8-(Hexyloxy)octyl]pyrazin-2-amine] | 104 | 101 | 17.51 | 
36 | CCCCCCOCCCCCCCCn1cnc2cccnc21 [FX, 3-[8-(Hexyloxy)octyl]-3H-imidazo[4,5-b]pyridine] | 112 | 96.6 |  | 
